The values below come from ChEMBL document CHEMBL4017541, “Membrane-Active Hydantoin Derivatives as Antibiotic Agents” (J Med Chem, 2017).

Each structure is given as a SMILES string. In brackets after ≈: the same amount, converted by molar mass.

Experiment [1] relates to Staphylococcus epidermidis. As to the kind of experiment: Antimicrobial activity against methicillin resistant Staphylococcus epidermidis RP62A after 16 hrs. The experiment is classed as functional.
The subject of another experiment is Staphylococcus aureus. The experiment in a line: Antimicrobial activity against methicillin resistant Staphylococcus aureus ATCC 33591 after 16 hrs. The experiment is classed as functional. The settings on record: ATCC 33591, 16 h.
Experiment [2] can be described thus: Selectivity index, ratio of HC50 for mouse RBC to MIC for methicillin resistance Staphylococcus aureus ATCC 33591.
A further experiment has as its system Escherichia coli. The experiment in a line: Antimicrobial activity against Escherichia coli ATCC 25922 after 16 hrs. The format is functional. The settings on record: ATCC 25922, 16 h.
A further experiment deals with Klebsiella pneumoniae. As to the kind of experiment: Antimicrobial activity against Klebsiella pneumoniae ATCC 13383 after 16 hrs. The format is functional. The settings on record: ATCC 13383, 16 h.
In a further experiment the test system is Enterococcus faecalis. As to the kind of experiment: Antimicrobial activity against vancomycin resistant Enterococcus faecalis ATCC 700802 after 16 hrs. The settings on record: ATCC 700802, 16 h. The experiment is classed as functional.
For another experiment, the system named is Pseudomonas aeruginosa. As to the kind of experiment: Antimicrobial activity against Pseudomonas aeruginosa ATCC 27853 after 16 hrs. The format is functional. The settings on record: ATCC 27853, 16 h.
Experiment [3] in a line: Retention time of compound by HPLC analysis.

One may read the MIC as the lowest concentration found to suppress growth. A higher MIC goes with weaker potency. For `CCCCCCCCCC(=O)N[C@@H](CCCCN)CN1CC(=O)N(c2cccc(Cl)c2)C1=O`, the MIC in experiment [1] was 6.25 µg/mL (≈ 13 µM); in the experiment with Staphylococcus aureus, 6.25 µg/mL (≈ 13 µM); against Escherichia coli it was 6.25 µg/mL (≈ 13 µM); against Klebsiella pneumoniae, 6.25 µg/mL (≈ 13 µM); against Enterococcus faecalis it was 12.5 µg/mL (≈ 26.1 µM); with Pseudomonas aeruginosa, 6.25 µg/mL (≈ 13 µM). In experiment [2], the Selectivity Index was found to be 16.

For `CCCCCCCCCCCCCCCC(=O)N[C@@H](CCCCN)CN1CC(=O)N(c2cccc(Cl)c2)C1=O`, the MIC is 12.5 µg/mL (≈ 22.2 µM) in experiment [1]; 12.5 µg/mL (≈ 22.2 µM) with Staphylococcus aureus; above 50 µg/mL against Escherichia coli; above 50 µg/mL with Klebsiella pneumoniae; 12.5 µg/mL (≈ 22.2 µM) with Enterococcus faecalis; above 50 µg/mL against Pseudomonas aeruginosa.

On to `CCCCCCCCCCCCCC(=O)N[C@@H](CCCCN)CN1CC(=O)N(c2ccc(OC)cc2)C1=O`, for which the MIC in experiment [1] was 6.25 µg/mL (≈ 11.8 µM); in the experiment with Staphylococcus aureus, 6.25 µg/mL (≈ 11.8 µM); against Escherichia coli, 6.25 µg/mL (≈ 11.8 µM); against Klebsiella pneumoniae it was 25 µg/mL (≈ 47.1 µM); against Enterococcus faecalis, 6.25 µg/mL (≈ 11.8 µM); against Pseudomonas aeruginosa, above 50 µg/mL.

Consider `CCCCCCCCCCCC(=O)N[C@@H](CCCCN)CN1CC(=O)N(C2CCCCC2)C1=O`, for which the MIC in experiment [1] is 6.25 µg/mL (≈ 13.1 µM); against Staphylococcus aureus, 6.25 µg/mL (≈ 13.1 µM); with Escherichia coli, 6.25 µg/mL (≈ 13.1 µM); in the experiment with Klebsiella pneumoniae, 6.25 µg/mL (≈ 13.1 µM); against Enterococcus faecalis it was 12.5 µg/mL (≈ 26.1 µM); in the experiment with Pseudomonas aeruginosa, 12.5 µg/mL (≈ 26.1 µM). In addition, the Selectivity Index in experiment [2] was found to be 16.

For `CCCCCCCCCC(=O)N[C@@H](CCCCN)CN1CC(=O)N(C2CCCCC2)C1=O`, the MIC was above 50 µg/mL in experiment [1]; 25 µg/mL (≈ 55.5 µM) against Staphylococcus aureus; 12.5 µg/mL (≈ 27.7 µM) against Escherichia coli; 25 µg/mL (≈ 55.5 µM) against Klebsiella pneumoniae; above 50 µg/mL with Enterococcus faecalis; above 50 µg/mL with Pseudomonas aeruginosa. In experiment [3], this compound yielded a Retention time below 26 min.

Regarding `CCCCCCCCCCCCCCCC(=O)N[C@@H](CCCCN)CN1CC(=O)N(c2ccc(OC)cc2)C1=O`, the MIC in experiment [1] was 6.25 µg/mL (≈ 11.2 µM); in the experiment on Staphylococcus aureus, 3.12 µg/mL (≈ 5.58 µM); in the experiment with Escherichia coli, above 50 µg/mL; against Klebsiella pneumoniae it was above 50 µg/mL; in the experiment on Enterococcus faecalis it was 6.25 µg/mL (≈ 11.2 µM); with Pseudomonas aeruginosa it was above 50 µg/mL.

As to `CCCCCCCCCCCCCCCC(=O)N[C@@H](CCCCN)CN1CC(=O)N(C23CC4CC(CC(C4)C2)C3)C1=O`, the MIC (in experiment [1]; with Staphylococcus aureus; in the experiment on Escherichia coli; with Klebsiella pneumoniae; against Enterococcus faecalis; in the experiment with Pseudomonas aeruginosa) was above 50 µg/mL each time.

Regarding `CCCCCCCCCC(=O)N[C@@H](CCCCN)CN1CC(=O)N(CCCC)C1=O`, the minimal inhibitory concentration (MIC) (in experiment [1]; against Staphylococcus aureus; against Escherichia coli; in the experiment on Klebsiella pneumoniae; in the experiment with Enterococcus faecalis; in the experiment with Pseudomonas aeruginosa) was above 50 µg/mL each time. The Retention time in experiment [3] is below 26 min.

On to `CCCCCCCCCCCC(=O)N[C@@H](CCCCN)CN1CC(=O)N(CC)C1=O`, for which the MIC in experiment [1] is above 50 µg/mL; in the experiment on Staphylococcus aureus, above 50 µg/mL; against Escherichia coli, 12.5 µg/mL (≈ 29.4 µM); against Klebsiella pneumoniae, above 50 µg/mL; in the experiment on Enterococcus faecalis it was above 50 µg/mL; in the experiment on Pseudomonas aeruginosa, above 50 µg/mL. In addition, the Retention time in experiment [3] is below 26 min.

With `CCCCCCCCCC(=O)N[C@@H](CCCCN)CN1CC(=O)N(c2ccc(OC)cc2)C1=O`, the MIC (in experiment [1]; with Staphylococcus aureus; against Escherichia coli; against Klebsiella pneumoniae; against Enterococcus faecalis; against Pseudomonas aeruginosa) was above 50 µg/mL in each case. Besides, the Retention time in experiment [3] was below 26 min.

Turning to `CCCCCCCCCCCCCC(=O)N[C@@H](CCCCN)CN1CC(=O)N(CC)C1=O`, the MIC in experiment [1] was found to be 6.25 µg/mL (≈ 13.8 µM); against Staphylococcus aureus it was 6.25 µg/mL (≈ 13.8 µM); with Escherichia coli, 3.12 µg/mL (≈ 6.89 µM); in the experiment on Klebsiella pneumoniae, 6.25 µg/mL (≈ 13.8 µM); in the experiment on Enterococcus faecalis, 6.25 µg/mL (≈ 13.8 µM); in the experiment with Pseudomonas aeruginosa, 12.5 µg/mL (≈ 27.6 µM). Moreover, the Selectivity Index in experiment [2] amounted to 14.4.

`CCCCCCCCCCCCCCCC(=O)N[C@@H](CCCCN)CN1CC(=O)N(C2CCCCC2)C1=O`: the MIC in experiment [1] is 25 µg/mL (≈ 46.7 µM); in the experiment on Staphylococcus aureus it was 3.12 µg/mL (≈ 5.83 µM); against Escherichia coli it was above 50 µg/mL; with Klebsiella pneumoniae, above 50 µg/mL; against Enterococcus faecalis it was 25 µg/mL (≈ 46.7 µM); in the experiment on Pseudomonas aeruginosa, above 50 µg/mL.

`CCCCCCCCCCCCCC(=O)N[C@@H](CCCCN)CN1CC(=O)N(c2cccc(Cl)c2)C1=O`: the MIC in experiment [1] is 12.5 µg/mL (≈ 23.4 µM); in the experiment on Staphylococcus aureus, 12.5 µg/mL (≈ 23.4 µM); in the experiment on Escherichia coli it was above 50 µg/mL; in the experiment with Klebsiella pneumoniae, above 50 µg/mL; in the experiment with Enterococcus faecalis, 12.5 µg/mL (≈ 23.4 µM); in the experiment with Pseudomonas aeruginosa it was above 50 µg/mL.
